Structures can show the parent of a compound that is named as a salt.
How the values were obtained:
GSK3 [1] = conditions: cited from earlier work; for IC50: GSK3 inhibitor, review Front. Mol. Neurosci. 2011
human CD8+ T cells [2] = assay: Screening of GSK3 inhibitors: markers and memory phenotypes by flow cytometry; format: cell-based
Method: (§1) FIG. 12. Screening molecules for reprogramming human CD8^+ T cells Total CD8^+ T cells were purified and treated for 12 hs with titrated doses of GSK3 inhibitors or DMSO vehicle control. After drug washout, cells were stimulated for 48 hs with plate-bound anti-CD3/anti-CD28 antibodies (at 1 mg/mL), followed by flow cytometry analyses. A. Upon stimulation, intracellular cytokine and phospho-protein staining was performed, the latter for the detection of phospho-S6 and phospho-AKT proteins (indicative of activation of mTORC1 and mTORC2 pathways, respectively). The fold change in the frequency of IFN-γ^+TNF-α^+ and pS6^+pAKT^+ cells induced by the treatment with each GSK3 inhibitor, relative to DMSO control, was analyzed. […] B. Fold change in the expression of the indicated markers and memory phenotypes induced by anti-CD3/anti-CD28 antibody stimulation relative to unstimulated cells (at least 3 donors per condition). TCM: T central memory; TEM: T effector memory; TTM: T transitional memory; TTE: T terminal effector; TSCM: T stem cell memory.
(§2) For reprogramming of CD8^+ T cells followed by polyclonal stimulation, cells were isolated by negative magnetic bead sorting (Stemcell Technologies). For reprogramming of CD8^+ T cells followed by antigen-specific stimulation, PBMC and magnetically separated CD8^+ T cells and non-CD8^+ T cells were used (REAlease® CD8 MicroBead Kit; Miltenyi Biotech). Then, CD8^+ T cells were treated with a GSK3 inhibitor (6-Bromoindirubin-3′-oxime; BIO; Sigma-Aldrich), at 3 μM, or an equivalent concentration of dimethyl sulfoxide (DMSO) vehicle control, in complete medium, for 12 hs at 37° C., 5% CO2. Non-CD8 cells were left resting during this time in complete medium. CD8^+ T cells were washed with complete medium and stimulated with the peptide pool in presence of non-CD8 T cells.
(§3) In some experiments, cells were culture in RPMI medium without glucose (MP Biomedicals). CD8^+ T cell proliferation was evaluated by CFSE dilution (at 1 μM, Thermo Fisher Scientific). In additional experiments, reprogrammed CD8^+ T cells were stimulated with IL-7 or IL-15 (both at 10 ng/mL; R&D) and cultured for 6 days. In all the cases, cells were cultured at a density of 2×10^6 cells/mL.
(§4) After cultures, cells were stained with the LIVE/DEAD Fixable Aqua Dead Cell Stain kit (Thermo Fisher Scientific), with anti-CD3 Alexa Fluor 700 or APC efluor 780 and anti-CD8 PE Texas Red antibodies, accordingly. […] In some experiments, cells were stained with APC-conjugated dextramers (Immudex), incubated for 15 minutes at room temperature. Additional surface staining panels included anti-HLA-DR Superbright 780, anti-CD38 Superbright 600, anti-PD-1 BV421, anti-LAG-3 APC efluor 780, anti-TIM3 PE Cy7, and anti-TIGIT BV786 antibodies, or anti-CD122 PE and anti-CD215 FITC antibodies. The BD Transcription Factor Buffer Set kit (BD Biosciences) was used for cell fixation and permeabilization. […] Cell acquisition was performed using LSR II or ARIA III flow cytometers (both from BD Biosciences), and data were analyzed with FlowJo v.10 software (BD Biosciences).

[3] = test system: CD8+ T cells from people without HIV; assay: In vitro reprogramming of bulk CD8+ T cells, phenotype without further stimulation; format: cell-based, human; conditions: BIO and TWS119 in parallel, 3 μM, 12 hs
Method: FIG. 1. Induction of stem-like CD8^+ T cells with high survival capacity and polyfunctionality by in vitro reprogramming. A. CD8^+ T cells from people without HIV were incubated with medium, vehicle control, or a GSK3 inhibitor, for 12 hs and the phenotype was evaluated by flow cytometry. A representative donor from a total of 4 is shown. B. Frequencies of CD8^+ T cell subpopulations after each treatment. C. Fold change of CD8^+ T cell subpopulations after treatment with vehicle control or a GSK3 inhibitor, relative to medium alone condition (n=4). D. Expression of TCF-1 in CD8^+ T cell subpopulations (n=4). E. The expression of the indicated markers in cells pre-treated with vehicle control or a GSK3 inhibitor was evaluated by flow cytometry. The fold change in the expression induced by 48 hs anti-CD3/CD28 stimulation, relative to unstimulated cells, is shown (n=5). F. Left: Flow cytometry analysis of dead cells (Aqua Live/Dead^+) among total and T-bet+CD8^+ T cells. Right: Fold change in dead CD8^+ T cells induced by anti-CD3/CD28 stimulation, relative to the unstimulated condition (n=5). G. Frequencies of granzyme B^+, TL-2^+, IFN-γ^+, and TNF-α^+CD8^+ T cells after anti-CD3/CD28 stimulation. H. Expression of 1 to 4 functions in CD8^+ T cells after anti-CD3/CD28 stimulation (n=5). I. After reprogramming with the GSK3 inhibitor, CD8^+ T cells were stimulated for 48 hs with anti-CD3/CD28, followed by wash and resting for 5 days. Then, cells were restimulated for another 48 hs with anti-CD3/CD28. Left: Flow cytometry analysis of proliferating (CFSE dilution) CD8^+ T cells. Right: Frequencies of CD8^+ T cells with 0, 1-3 or ≥4 cell divisions (n=9). J. Frequency of the total HCMV pp65-specific CD8^+ T cell response (IFN-γ^+ or CD107a^+ or TNF-α^+), after vehicle control or GSK3 inhibitor treatment, followed by HCMV pp65 peptides stimulation for 6 hs (n=6). K. Frequencies of CD8^+ T cell subpopulations among HCMV pp65-specific CD8^+ T cells (n=6). L. Expression of IFN-γ, CD107a, and TNF-α in HCMV pp65-specific CD8^+ T cells (n=6). M. Frequency of the total HCMV pp65-specific CD8^+ T cell response after HCMV pp65 peptides stimulation for 6 days (n=6). *P<0.05; **P≤0.01. NS: Not statistically significant. TSCM: Stem cell memory; TCM: Central memory; TTM: Transitional memory; TEM: Effector memory; TTE: Terminal effector.
FIG. 2. A. Flow cytometry gating strategy used to identify CD8^+ T cell subpopulations: Naïve, Stem cell memory (TSCM), Central memory (TCM), Transitional memory (TTM), Effector memory (TEM), and Terminal effector (TTE). B. Expression of CCR7, CD27 and TCF-1 in total CD8^+ T cells after treatment with vehicle control, or the GSK3 inhibitors BIO or TWS119, for 12 hs. The median fluorescence intensity of each marker is depicted. C. Fold change in TSCM, TCM and TEM cells induced by BIO or TWS119, relative to vehicle control (n=3 people without HIV). D. Fold change in T-bet^+ cells among TSCM and TCM induced by anti-CD3/CD28 stimulation, relative to vehicle control, in cells previously treated with vehicle control, BIO or TWS119 (n=3). E. Fold change in T-bet^+ cells among naïve/TSCM induced by anti-CD3/CD28 stimulation (0.2 and 1 μg/mL), relative to unstimulated cells, previous treatment with vehicle control or the GSK3 inhibitor (n=3). F. Fold change in T-bet^+ cells among each CD8^+ T cell subpopulation induced by anti-CD3/CD28+ICAM-1 stimulation, relative to unstimulated cells (n=5). G. Frequency of IL-2^+TNF-α^+ cells among each CD8^+ T cell subpopulation after anti-CD3/CD28+ICAM-1 stimulation (n=5). H. Correlation between the frequency of PD-1^+LAG-3^+TIM3^+TIGIT^+CD8^+ T cells and the proportion of CD8^+ T cells with ≥4 cell divisions after restimulation (n=6). I. After reprogramming with the GSK3 inhibitor, CD8^+ T cells were left unstimulated, stimulated once for 48 hs with anti-CD3/CD28, or stimulated twice with anti-CD3/CD28. The expression of T-bet in TCM and TTM cells is shown (n=5). *P<0.05. […]

GSK3 [4] = conditions: reference 42; cited from earlier work
[5] = test system: mTORC1 and mTORC2 pathways; assay: Screening of GSK3 inhibitors: phospho-S6 / phospho-AKT staining (activation of mTORC1 and mTORC2 pathways); format: cell-based, human; conditions: for Fold change in pS6+pAKT+cells (relative to DMSO): 12 hs at optimal dose, washout, 48 hs anti-CD3/anti-CD28, symbols not defined; for frequency of pS6+pAKT+ cells / activation of mTORC pathway: FIG. 12A, in words
Method: as §1, §2, §3, §4
(§5) The inventors explored GSK3 inhibitors to expand the array of molecules that could be used for CD8^+ T cell reprogramming. They implemented a screening approach that combined the evaluation of cytokine polyfunctionality of CD8^+ T cells (IFN-γ+TNFα+) vs the activation of mTORC1 and mTORC2 pathways (pS6+pAKT+) upon treatment with the GSK3 inhibitors and subsequent polyclonal stimulation.

human CD8+ T cells [6] = assay: Screening of GSK3 inhibitors: cytokine polyfunctionality (IFN-γ+TNF-α+) of CD8+ T cells after anti-CD3/anti-CD28 stimulation; format: cell-based; conditions: for Fold change in IFN-γ+ TNF-a+cells (relative to DMSO): 12 hs at optimal dose, washout, 48 hs anti-CD3/anti-CD28, symbols not defined; for IFN-γ+TNF-α+ cells (polyfunctionality) relative to vehicle control: FIG. 12A, in words
Method: as §1, §2, §3, §4, §5

[7] = 12 hs at optimal dose, anti-CD3/anti-CD28 stimulation relative to unstimulated cells, symbols not defined

O[C@]12C=C(c3nccc4c3[nH]c3ccccc34)[C@@H]3CCN(CCCC/C=C\CC1)C[C@@]31C[C@@H]3/C=C\CCCCN3[C@H]12 [Manzamine A]
IC50 (GSK3 [1]): 1500 nM

CN1CC[C@H](c2c(O)cc(O)c3c(=O)cc(-c4ccccc4Cl)oc23)[C@H](O)C1 [Flavopiridol hydrochloride hydrate]
Fold change in % HLA+ CD38+ (human CD8+ T cells [2]; [7]): − −
Fold change in % Naive-TSCM (human CD8+ T cells [2]; [7]): − −
Fold change in % TCM (human CD8+ T cells [2]; [7]): − −

OCCCNc1cc(-c2ccnc(Nc3cccc(Cl)c3)n2)ccn1 [CGP 60474]
Fold change in % HLA+ CD38+ (human CD8+ T cells [2]; [7]): − −

Nc1cccc(-c2cc3c(Oc4cccc(O)c4)ncnc3[nH]2)c1 [TWS119, 3-[[6-(3-aminophenyl)-7H-pyrrolo[2,3-d]pyrimidin-4-yl]oxy]phenol]
CCR7, CD27, and TCF-1 ([3]; FIG. 2B): induced
TEM cells ([3]; FIG. 2C): decrease
TSCM and TCM cells ([3]; FIG. 2C): increase
Wnt/β-catenin/TCF-1 pathway (GSK3 [4]): induce the activation
IC50 (GSK3 [1]): 0.6 to 7 nM
selectivity of inhibition of GSK3 (GSK3 [1]): highly selective inhibitors

CN1CCN(S(=O)(=O)c2ccc(-c3cnc(N)c(C(=O)Nc4cccnc4)n3)cc2)CC1 [AZD 2858]
Fold change in pS6+pAKT+cells (relative to DMSO) [5]: + +
Fold change in IFN-γ+ TNF-a+cells (relative to DMSO) (human CD8+ T cells [6]): + +

COc1ccc2c(c1)/C(=C/c1cnc[nH]1)C(=O)N2 [SU 9516]
Fold change in % HLA+ CD38+ (human CD8+ T cells [2]; [7]): + +
Fold change in pS6+pAKT+cells (relative to DMSO) [5]: + +
frequency of pS6+pAKT+ cells / activation of mTORC pathway [5]: activation of mTORC pathway
Fold change in IFN-γ+ TNF-a+cells (relative to DMSO) (human CD8+ T cells [6]): + +
IFN-γ+TNF-α+ cells (polyfunctionality) relative to vehicle control (human CD8+ T cells [6]): increased

COc1ccc(CNC(=O)Nc2ncc([N+](=O)[O-])s2)cc1 [AR-A014418]
frequency of pS6+pAKT+ cells / activation of mTORC pathway [5]: decreased

CC(=O)ON=C1C(=C2C(=O)Nc3cc(Br)ccc32)Nc2ccccc21 [Bio-acetoxime, 6-bromoindirubin-3′-acetoxime]
CD127+ T-bet− phenotype (human CD8+ T cells [2]; FIG. 12B, in words): preserved
acquisition of T-bet, HLA-DR and CD38, PD-1 and LAG-3 (human CD8+ T cells [2]; FIG. 12B, in words): restrained
phenotype / profile promoted in CD8+ T cells (human CD8+ T cells [2]; FIG. 12B, in words): promoted a less-differentiated phenotype
frequency of pS6+pAKT+ cells / activation of mTORC pathway [5]: lower frequency
Fold change in IFN-γ+ TNF-a+cells (relative to DMSO) (human CD8+ T cells [6]): + +
IFN-γ+TNF-α+ cells (polyfunctionality) relative to vehicle control (human CD8+ T cells [6]): promoted

O=c1sn(-c2cccc3ccccc23)c(=O)n1Cc1ccccc1 [Tideglusib (NP031112)]
frequencies of CD127− T-bet+ cells, and LAG-3+ PD-1+ cells (human CD8+ T cells [2]; FIG. 12B, in words): higher frequencies
phenotype / profile promoted in CD8+ T cells (human CD8+ T cells [2]; FIG. 12B, in words): promoted an effector-like profile

Source: patent publication US20250108070A1, “METHOD FOR REPROGRAMMING CD8+ T CELLS TO ENHANCE THEIR THERAPEUTIC POTENTIAL AND APPLICATIONS THEREOF” (INSTITUT PASTEUR, priority 2022, published 2025)
